Measured values reported in paper PMC8927117, “Structural Insight into the MCM double hexamer activation by Dbf4-Cdc7 kinase” (Nature Communications, 2022).

Assays:
[1] = target: T1, DDK (Dbf4-Cdc7 kinase) (Saccharomyces cerevisiae, UniProt P06243); experiment: cryo-EM structure; format: binding; conditions: bound to MCM double hexamer, glutaraldehyde Grafix, 1 mM ATP-γ-S, 8 mM Mg(OAc)2; Cdc7 active center
T1 construct: Dbf4 704 residues; with DDK kinase regulatory subunit DBF4

[2] = system: T2, MCM double hexamer (MCM-DH, Mcm2-7); experiment: cryo-EM structure; parameters: species or system Saccharomyces cerevisiae; conditions: with DDK bound, nucleotide-binding pockets of MCM subunits
T2 construct: endogenous double hexamer from G1 chromatin, TEV-3xFLAG tag on Mcm7 or Mcm2

T1 sequence (P06243 whole entry): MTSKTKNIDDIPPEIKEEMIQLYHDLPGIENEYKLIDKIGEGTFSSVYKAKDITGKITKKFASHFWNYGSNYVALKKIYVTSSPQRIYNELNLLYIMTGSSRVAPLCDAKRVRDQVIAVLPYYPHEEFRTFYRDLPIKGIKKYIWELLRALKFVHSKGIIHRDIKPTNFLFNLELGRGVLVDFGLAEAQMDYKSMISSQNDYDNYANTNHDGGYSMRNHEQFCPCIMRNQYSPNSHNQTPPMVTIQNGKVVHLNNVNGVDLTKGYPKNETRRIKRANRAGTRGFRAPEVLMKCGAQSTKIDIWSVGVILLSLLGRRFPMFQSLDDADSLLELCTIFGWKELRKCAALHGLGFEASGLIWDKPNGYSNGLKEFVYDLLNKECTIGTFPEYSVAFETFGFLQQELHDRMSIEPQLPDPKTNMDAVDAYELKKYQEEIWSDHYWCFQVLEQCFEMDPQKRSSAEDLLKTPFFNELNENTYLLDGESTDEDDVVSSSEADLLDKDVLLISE
T1 sequence (P32325 whole entry partner): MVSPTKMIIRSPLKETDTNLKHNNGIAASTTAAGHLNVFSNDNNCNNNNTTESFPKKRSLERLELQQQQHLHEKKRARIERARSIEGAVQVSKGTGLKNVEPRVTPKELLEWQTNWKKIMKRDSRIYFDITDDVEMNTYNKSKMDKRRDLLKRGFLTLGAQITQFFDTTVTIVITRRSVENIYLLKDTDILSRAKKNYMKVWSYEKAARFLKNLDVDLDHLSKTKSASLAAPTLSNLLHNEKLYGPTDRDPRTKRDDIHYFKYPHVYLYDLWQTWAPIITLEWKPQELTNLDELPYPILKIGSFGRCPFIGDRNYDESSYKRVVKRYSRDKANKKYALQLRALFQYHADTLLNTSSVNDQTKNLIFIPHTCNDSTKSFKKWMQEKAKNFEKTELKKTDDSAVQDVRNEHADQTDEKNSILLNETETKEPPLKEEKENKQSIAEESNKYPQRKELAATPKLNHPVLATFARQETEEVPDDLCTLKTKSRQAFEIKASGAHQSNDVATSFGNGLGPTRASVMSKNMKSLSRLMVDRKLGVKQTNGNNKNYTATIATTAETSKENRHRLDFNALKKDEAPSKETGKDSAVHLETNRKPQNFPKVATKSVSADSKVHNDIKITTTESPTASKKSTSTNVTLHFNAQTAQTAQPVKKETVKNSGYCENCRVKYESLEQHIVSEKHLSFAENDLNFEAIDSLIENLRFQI

Row | SMILES | cryo-EM structure [1] | cryo-EM structure ([2]; 1 mM ATP-γ-S) | cryo-EM structure ([2]; no ADP added)
1 | Nc1ncnc2c1ncn2[C@@H]1O[C@H](COP(=O)(O)OP(=O)(O)OP(O)(O)=S)[C@@H](O)[C@H]1O [ATP-γ-S] | Thr506, is situated close to the γ-phosphate of the ATP-γ-S nucleotide in the active center | nucleotide-binding pockets of MCM subunits were modeled as ATP-γ-S or ADP | 
2 | Nc1ncnc2c1ncn2[C@@H]1O[C@H](COP(=O)(O)OP(=O)(O)O)[C@@H](O)[C@H]1O [ADP] |  |  | nucleotide-binding pockets of MCM subunits were modeled as ATP-γ-S or ADP
